Source: patent publication US10760110B2, “Antibiotic testing and screening system” (priority 2017, dated 2020)
Where two headings read alike, the source gives them in different places.

System: K. pneumoniae NVT1001 and its GyrA/ParC and ΔramR mutants
Assay: Etest MIC of quinolones, GyrA/ParC mutations and AcrAB-TolC overexpression (ΔramR) (Table 10)
Format: cell-based
Conditions: Klebsiella pneumoniae
Source text: DNA fragments of the entire gyrA and parC sequences along with their flanking regions were amplified from K. pneumoniae strain NVT1001 using PCR with specific primer pairs and then cloned into the plasmid pUT-KB. The QuikChange site-directed mutagenesis kit (Stratagene) was used to generate mutations in the gyrA and parC genes in the plasmid using the methods described by the manufacturer. For homologous recombination, plasmids containing mutations in the gyrA or parC gene were transformed into E. coli S17-1 λpir^23 via electroporation and mobilized into K. pneumoniae strain NVT1001 via conjugation. Single-crossover strains were selected from BIND plates supplemented with kanamycin (50 mg/L), as the growth of non-K. pneumoniae contaminants is suppressed on BIND plates.^24 After the kanamycin-resistant transconjugants were selected, the insertion of plasmids was verified via PCR. After incubation in 20 mL BHI broth for 6 hours at 37° C. in the absence of kanamycin, the fully grown cultures were spread onto LB agar plates supplemented with 10% sucrose. After the double crossover occurred, the sucrose-resistant and kanamycin-susceptible colonies were selected, and the gene mutations were confirmed via PCR.
The MICs of antibiotics were determined using the Etest (Biodisk AB, Sweden) according to the manufacturer's instructions. The MICs from the Etest, which fall between standard two-fold dilutions, were rounded up to the next highest two-fold value. The MICs of ceftazidime and cefotaxime against K. pneumoniae NVT1001 harbouring the pACYC177 plasmid with blaOXA-48 were further determined using a broth microdilution test according to the recommendations of the CLSI,^25 and the results were interpreted according to the breakpoints established by the CLSI in 2017.^25 Meanwhile, due to the lack of CLSI breakpoints in 2016 and 2017, the results for cephalothin were interpreted according to the breakpoints established by the CLSI in 2015,^26 and the results for moxifloxacin were interpreted according to the breakpoints established by the EUCAST in 2017.^27

| Compound | MIC (D87N mutant (GyrA D87N)) [µg/mL] | MIC (D87N/S80I mutant) [µg/mL] | MIC (NVT1001, read-out: MIC) [µg/mL] | MIC (S80I mutant (ParC S80I)) [µg/mL] | MIC (S83F mutant (GyrA S83F)) [µg/mL] | MIC (S83F/D87N mutant) [µg/mL] | MIC (S83F/D87N/S80I mutant) [µg/mL] | MIC (S83F/S80I mutant) [µg/mL] | MIC (S83I mutant (GyrA S83I)) [µg/mL] | MIC (S83I/D87N mutant) [µg/mL] | MIC (S83I/D87N/S80I mutant) [µg/mL] | MIC (S83I/S80I mutant) [µg/mL] | MIC (S83L mutant (GyrA S83L)) [µg/mL] | MIC (S83L/D87N mutant) [µg/mL] | MIC (S83L/D87N/S80I mutant) [µg/mL] | MIC (S83L/S80I mutant) [µg/mL] | MIC (S83Y mutant (GyrA S83Y)) [µg/mL] | MIC (S83Y/D87N mutant) [µg/mL] | MIC (S83Y/D87N/S80I mutant) [µg/mL] | MIC (S83Y/S80I mutant) [µg/mL] | further results |
| --- | --- | --- | --- | --- | --- | --- | --- | --- | --- | --- | --- | --- | --- | --- | --- | --- | --- | --- | --- | --- | --- |
| CCn1cc(C(=O)O)c(=O)c2ccc(C)nc21 [Nalidixic acid, nalidixic acid] | > 256 | > 256 | 4 | 8 | > 256 | > 256 | > 256 | > 256 | > 256 | > 256 | > 256 | > 256 | > 256 | > 256 | > 256 | > 256 | > 256 | > 256 | > 256 | > 256 | MIC (ΔramR mutant): 32 µg/mL; MIC (ΔramR/S83I mutant): > 256 µg/mL; MIC (ΔramR/S83I/D87N/S80I mutant): > 256 µg/mL; MIC (ΔramR/S83I/S801 mutant): > 256 µg/mL |
| CC1COc2c(N3CCN(C)CC3)c(F)cc3c(=O)c(C(=O)O)cn1c23 (stereo not drawn) [Ofloxacin, ofloxacin] | 1 | 1 | 0.25 | 0.25 | 2 | 2 | 16 | 2 | 2 | 2 | 32 | 4 | 2 | 2 | 32 | 4 | 2 | 2 | 16 | 2 | MIC (ΔramR mutant): 2 µg/mL; MIC (ΔramR/S83I mutant): > 32 µg/mL; MIC (ΔramR/S83I/D87N/S80I mutant): > 32 µg/mL; MIC (ΔramR/S83I/S801 mutant): > 32 µg/mL |
